From US10738028B2, “Spiro three-membered ring, spiro five-membered ring peptide deformylase inhibitor and use thereof in antibacteria and anti-tumor” (priority 2016, dated 2020)

How the values were obtained:
Assay type in all cases: cell-based
[1] = tested on: Moraxella catarrhalis (BCA); experiment: MIC, two-fold agar dilution (CLSI), clinical isolates
Outline: (§1)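 Samples are serially diluted two-fold in agar following CLSI guidance. Plates are then inoculated with the tested strains. The lowest inhibiting concentration is recorded as MIC.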

[2] = tested on: methicillin-resistant Staphylococcus epidermidis (MRSE); experiment: as above
Outline: as §1

[3] = tested on: methicillin-resistant Staphylococcus aureus (MRSA); experiment: as above
Outline: as §1

[4] = tested on: Escherichia coli (including ESBLs, non-ESBLs); experiment: as above
Outline: as §1

[5] = tested on: Enterococcus faecium (EFM); experiment: as above
Outline: as §1

[6] = tested on: Enterococcus faecalis (EFA); experiment: as above
Outline: as §1

[7] = tested on: Streptococcus pneoumoniae (SPN); experiment: as above
Outline: as §1

[8] = tested on: methicillin-sensitive Staphylococcus aureus (MSSA); experiment: as above
Outline: as §1

[9] = tested on: methicillin-sensitive Staphylococcus epidermidis (MSSE); experiment: as above
Outline: as §1

[10] = tested on: BEL-7402 liver cancer cell line; experiment: CCK-8 proliferation inhibition; details: concentration of 30 μM, 72 hours, 30 µM
Excerpt: (§2) 2. The present invention adopts the CCK-8 method to determine the proliferation inhibition effect of the spiro three-membered ring, spiro five-membered ring peptide deformylase inhibitor as described in Examples 1-80 against colorectal cancer cells, lung cancer cells, gastric cancer cells, liver cancer cells, and the like. […] The compound having the best activity synthesized in Example 64 was further tested for its inhibitory activity against other tumor cells including T cell leukemia, acute myeloid leukemia, cervical cancer, breast cancer, prostate cancer and osteosarcoma, and the like (see Table 7).
(§3) (1) HCT-116 colorectal cancer cell line, A549 lung cancer cell line, MGC-803 gastric cancer cell line, BEL-7402 liver cancer cell line, Jurkat T cell leukemia cell line, HL60 acute myeloid leukemia cell line, Hela cervical cancer cell line, MCF-7 breast cancer cell line, PC3 prostate cancer cell line and SAOS-2 osteosarcoma cell line were made into single cell suspension, 180 μL of which was inoculated into 96-well culture plate, which was cultured overnight in CO2 incubator (37° C., 5% CO2, 95% air).
(§4) (2) Each of the spiro three-membered ring, spiro five membered ring peptide deformylase inhibitors was dissolved in DMSO, and was further formulated into drug solution with required different final concentration using corresponding cell culture medium. The drug solutions were added to the above cells respectively (20 μL/well), with the control group added with 1‰ DMSO, and cultured in a CO2 incubator for 72 hours.
(§5) (3) After incubation for 72 hours, the culture solution was decanted, and 100 μL of 1:10 diluted CCK-8 solution was added.
(§6) Wherein, in step (1), the concentration of the single cell suspension was 2000 cells/well.
(§7) Wherein, in step (2), HCT-116 cells were cultured in McCoy's 5A medium (containing 10% newborn bovine serum, 1% double antibody); A549 and PC3 cells were cultured in F12 medium (containing 10% newborn bovine serum, 1% double antibody); MGC-803, BEL-7402, SAOS-2, Jurkat and HL60 cells were cultured in 1640 medium (containing 10% newborn bovine serum, 1% double antibody); and MCF-7 and Hela cells were cultured in DMEM high glucose medium (containing 10% newborn bovine serum, 1% double antibody).

[11] = tested on: A549 lung cancer cell line; experiment: CCK-8 proliferation inhibition; details: Homo sapiens, A549, 72 h, concentration of 30 μM
Excerpt: as §2, §3, §4, §5, §6, §7

[12] = tested on: MGC-803 gastric cancer cell line; experiment: CCK-8 proliferation inhibition; details: concentration of 30 μM
Excerpt: as §2, §3, §4, §5, §6, §7

[13] = tested on: HCT-116 colorectal cancer cell line; experiment: CCK-8 proliferation inhibition; details: concentration of 30 μM; 72 hours; CCK-8; 30 µM
Outline: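 Cells were plated overnight at 2000 cells/well, then compound in culture medium was added at a range of final concentrations. After 72 hours in a CO2 incubator, medium was replaced with 1:10 CCK-8 solution for the read-out.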

O=CN(O)C[C@@H](CC1CCCC1)C(=O)N1CC2(CC2)C[C@H]1C(=O)Nc1nccs1 (stereo in doubt) [Example 40, (S)-5-((S)-3-cyclopentyl-2-((N-hydroxyformamido)methyl)propionyl)-N-(thiazol-2-yl)-5-spiro[2.4]heptane-6-carboxamide]
Anti-bacterial activity (MIC), strain BCA 14-1 ([1]; clinical isolate BCA 14-1): 1 µg/mL | Anti-bacterial activity (MIC), strain BCA 14-4 ([1]; clinical isolate BCA 14-4): 1 µg/mL | Anti-bacterial activity (MIC), strain BCA 14-5 ([1]; clinical isolate BCA 14-5): 0.5 µg/mL | Anti-bacterial activity (MIC), strain BCA 14-6 ([1]; clinical isolate BCA 14-6): 0.5 µg/mL | Anti-bacterial activity (MIC), strain BCA 14-7 ([1]; clinical isolate BCA 14-7): 0.25 µg/mL | Anti-bacterial activity (MIC), strain BCA 14-8 ([1]; clinical isolate BCA 14-8): 0.5 µg/mL | Anti-bacterial activity (MIC), strain BCA 14-10 ([1]; clinical isolate BCA 14-10): 0.2 µg/mL | Anti-bacterial activity (MIC), strain MRSE 15-1 ([2]; clinical isolate MRSE 15-1): 0.5 µg/mL | Anti-bacterial activity (MIC), strain MRSE 15-2 ([2]; clinical isolate MRSE 15-2): 0.5 µg/mL | Anti-bacterial activity (MIC), strain MRSE 15-3 ([2]; clinical isolate MRSE 15-3): 0.5 µg/mL | Anti-bacterial activity (MIC), strain MRSE 15-7 ([2]; clinical isolate MRSE 15-7): 0.5 µg/mL | Anti-bacterial activity (MIC), strain MRSA 15-1 ([3]; clinical isolate MRSA 15-1): 0.5 µg/mL | Anti-bacterial activity (MIC), strain MRSA 15-2 ([3]; clinical isolate MRSA 15-2): 0.5 µg/mL | Anti-bacterial activity (MIC), strain MRSA 15-3 ([3]; clinical isolate MRSA 15-3): 0.25 µg/mL | Anti-bacterial activity (MIC), strain MRSA 15-4 ([3]; clinical isolate MRSA 15-4): 0.25 µg/mL | Anti-bacterial activity (MIC), strain ECO+ 15-1 ([4]; clinical isolate ECO+ 15-1): 32 µg/mL | Anti-bacterial activity (MIC), strain ECO+ 15-2 ([4]; clinical isolate ECO+ 15-2): 32 µg/mL | Anti-bacterial activity (MIC), strain ECO+ 15-3 ([4]; clinical isolate ECO+ 15-3): 32 µg/mL | Anti-bacterial activity (MIC), strain ECO+ 15-4 ([4]; clinical isolate ECO+ 15-4): 32 µg/mL | Anti-bacterial activity (MIC), strain ECO− 15-1 ([4]; clinical isolate ECO− 15-1): 32 µg/mL | Anti-bacterial activity (MIC), strain ECO− 15-2 ([4]; clinical isolate ECO− 15-2): 32 µg/mL | Anti-bacterial activity (MIC), strain ECO− 15-3 ([4]; clinical isolate ECO− 15-3): 32 µg/mL | Anti-bacterial activity (MIC), strain ECO− 15-4 ([4]; clinical isolate ECO− 15-4): 32 µg/mL | Anti-bacterial activity (MIC), strain EFM 15-1 ([5]; clinical isolate EFM 15-1): 1 µg/mL | Anti-bacterial activity (MIC), strain EFM 15-2 ([5]; clinical isolate EFM 15-2): 1 µg/mL | Anti-bacterial activity (MIC), strain EFM 15-3 ([5]; clinical isolate EFM 15-3): 0.25 µg/mL | Anti-bacterial activity (MIC), strain EFM 15-4 ([5]; clinical isolate EFM 15-4): 1 µg/mL | Anti-bacterial activity (MIC), strain EFM 15-5 ([5]; clinical isolate EFM 15-5): 1 µg/mL | Anti-bacterial activity (MIC), strain EFM 15-6 ([5]; clinical isolate EFM 15-6): 1 µg/mL | Anti-bacterial activity (MIC), strain EFA 15-1 ([6]; clinical isolate EFA 15-1): 4 µg/mL | Anti-bacterial activity (MIC), strain EFA 15-2 ([6]; clinical isolate EFA 15-2): 4 µg/mL | Anti-bacterial activity (MIC), strain EFA 15-3 ([6]; clinical isolate EFA 15-3): 4 µg/mL | Anti-bacterial activity (MIC), strain EFA 15-4 ([6]; clinical isolate EFA 15-4): 4 µg/mL | Anti-bacterial activity (MIC), strain EFA 15-5 ([6]; clinical isolate EFA 15-5): 4 µg/mL | Anti-bacterial activity (MIC), strain EFA 15-6 ([6]; clinical isolate EFA 15-6): 4 µg/mL | Anti-bacterial activity (MIC), strain EFA 15-9 ([6]; clinical isolate EFA 15-9): 4 µg/mL | Anti-bacterial activity (MIC), strain SPN 16-2 ([7]; clinical isolate SPN 16-2): 0.25 µg/mL | Anti-bacterial activity (MIC), strain SPN 16-4 ([7]; clinical isolate SPN 16-4): 4 µg/mL | Anti-bacterial activity (MIC), strain MSSA 15-3 ([8]; clinical isolate MSSA 15-3): 0.5 µg/mL | Anti-bacterial activity (MIC), strain MSSA 15-4 ([8]; clinical isolate MSSA 15-4): 0.5 µg/mL | Anti-bacterial activity (MIC), strain MSSA 15-5 ([8]; clinical isolate MSSA 15-5): 0.5 µg/mL | Anti-bacterial activity (MIC), strain MSSA 15-6 ([8]; clinical isolate MSSA 15-6): 0.5 µg/mL | Anti-bacterial activity (MIC), strain MSSE 15-3 ([9]; clinical isolate MSSE 15-3): 0.5 µg/mL | Anti-bacterial activity (MIC), strain MSSE 15-4 ([9]; clinical isolate MSSE 15-4): 0.5 µg/mL | Anti-bacterial activity (MIC), strain MSSE 15-5 ([9]; clinical isolate MSSE 15-5): 0.25 µg/mL | Anti-bacterial activity (MIC), strain MSSE 15-6 ([9]; clinical isolate MSSE 15-6): 0.25 µg/mL | Inhibition of proliferation, Liver cancer BEL-7402 [10]: 73% | inhibition at 30 µM [11]: 30% | inhibition at 30 µM ([12]; Homo sapiens, MGC-803, 72 h): > 50% | Inhibition of proliferation, Gastric cancer MGC-803 ([12]; 72 hours, 30 µM): 63% | HCT116 inhibition rate/% [13]: 78%
